# From ChEMBL document CHEMBL4321846, “Discovery of a Potent and Selective Oral Inhibitor of ERK1/2 (AZD0364) That Is Efficacious in Both Monotherapy and Combination Therapy in Models of Nonsmall Cell Lung Cancer (NSCLC)” (J Med Chem, 2019)
# Activity calls are given as the source filed them. The calls are words filed in the database; no cut-off is given here.
# What was measured:
# [1] = target: T1, Mitogen-activated protein kinase 1 (Homo sapiens, UniProt P28482)
# [2] = target: T1, Mitogen-activated protein kinase 1; remark: listed apart in the source
# [3] = target: T1, Mitogen-activated protein kinase 1; remark: listed apart in the source
# [4] = target: T1, Mitogen-activated protein kinase 1; remark: listed apart in the source
# [5] = target: T1, Mitogen-activated protein kinase 1; remark: listed apart in the source
# [6] = target: T1, Mitogen-activated protein kinase 1; remark: listed apart in the source
# [7] = target: T1, Mitogen-activated protein kinase 1; assay: Inhibition of MEK U911-activated ERK2 (unknown origin) using ERKtide as substrate preincubated for 20 mins followed by substrate addition in presence of ATP at Km concentration after 20 mins by rapidfire mass spectrometry analysis
# [8] = target: Voltage-gated inwardly rectifying potassium channel KCNH2 (Homo sapiens, UniProt Q12809)
# [9] = target: T1, Mitogen-activated protein kinase 1; assay: Inhibition of MEK U911-activated ERK2 (unknown origin) using ERKtide as substrate preincubated for 20 mins followed by substrate addition in presence of 1 mM ATP after 10 mins by rapidfire mass spectrometry analysis
# [10] = target: T2, Mitogen-activated protein kinase; ERK1/ERK2 (Homo sapiens, UniProt P27361+P28482); assay: Inhibition of ERK1/2 in human A375 cells assessed as inhibition of ERK phosphorylation after 2 hrs; type: cell-based
# [11] = target: T2, Mitogen-activated protein kinase; ERK1/ERK2; assay: Inhibition of ERK1/2 in human A375 cells assessed as inhibition of RSK phosphorylation after 2 hrs; type: cell-based
# [12] = target: T1, Mitogen-activated protein kinase 1; assay: Binding affinity to MEK-activated phosphorylated biotinylated ERK2 (unknown origin) by SPR analysis
# A-375 = assay: Antiproliferative activity at human A375 cells expressing BRAF V600E mutant assessed as growth inhibition; type: functional
# [13] = target: Mitogen-activated protein kinase kinase kinase 8 (Homo sapiens) (UniProt P41279); assay: Inhibition of recombinant GST-tagged human COT catalytic domain expressed in baculovirus expression system at 1 uM by GST-tagged full length human inactive ERK2 expressed in baculovirus expression system coupled cascade assay relative to control
# [14] = target: Cyclin-dependent kinase 5/CDK5 activator 1 (Homo sapiens) (UniProt Q00535+Q15078); assay: Inhibition of recombinant full length human GST/His-tagged CDK5/p25 expressed in baculovirus expression system at 1 uM relative to control
# [15] = Fraction unbound in mouse plasma; type: ADME, cell-free
# Calu-6 [16] = assay: Antiproliferative activity against human Calu6 cells expressing KRAS Q61K mutant assessed as growth inhibition; type: functional
# [17] = target: T3, CDK2/Cyclin A1 (Homo sapiens) (UniProt P24941+P78396); assay: Inhibition of recombinant human full length His-tagged CDK2/Cyclin A expressed in baculovirus expression system at 1 uM relative to control
# [18] = target: Mitogen-activated protein kinase 15 (Homo sapiens) (UniProt Q8TD08); assay: Inhibition of recombinant human N-terminal 4xFLAG-tagged/C-terminal His8-fused ERK7 N-terminal domain (M1 to R354 residues) expressed in Sf9 insect cells at 1 uM relative to control
# [19] = Fraction unbound in dog plasma; type: ADME, cell-free, Canis lupus familiaris
# A549 = assay: Antitumor activity against human A549 cells harboring KRAS […] mutant xenografted in athymic Nude-Foxn1nu mouse assessed as tumor regression at 25 mg/kg, po bid adminstered for 21 days and measured twice per week in presence of selumetinib by caliper method relative to control; type: functional
# [20] = test system: RAF proto-oncogene serine/threonine-protein kinase (Homo sapiens), P04049 [Y340D,Y341D]; assay: Inhibition of recombinant human GST-tagged c-RAF1 Y340D/Y341D mutant catalytic domain expressed in baculovirus expression system at 1 uM by GST-tagged full length human inactive ERK2 expressed in baculovirus expression system coupled cascade assay relative to control
# Calu-6 [21] = assay: Antitumor activity against human Calu6 cells expressing KRAS Q61K mutant xenografted in athymic Nude-Foxn1nu mouse assessed as tumor growth inhibition at 15 mg/kg, po qd adminstered for 21 days and measured twice per week by caliper method relative to control; type: functional; conditions: Calu-6, po, 504 h, read-out: TGI
# [22] = Fraction unbound in human plasma; type: ADME, cell-free
# [23] = target: Dual specificity mitogen-activated protein kinase kinase 1 (Homo sapiens) (UniProt Q02750); assay: Inhibition of recombinant full length His-tagged human MEK1 expressed in baculovirus expression system at > 10 uM
# Calu-6 [24] = assay: Antitumor activity against human Calu6 cells expressing KRAS Q61K mutant xenografted in athymic Nude-Foxn1nu mouse assessed as tumor regression at 50 mg/kg, po qd adminstered for 21 days and measured twice per week by caliper method relative to control; type: functional
# [25] = Volume of distribution at steady state in dog; type: ADME, Canis lupus familiaris; conditions: in vivo, read-out: Vdss
# [26] = target: Cyclin-dependent kinase 5 (Homo sapiens) (UniProt Q00535); assay: Binding affinity to recombinant human GST-tagged inactive CDK5
# [27] = target: Dual specificity mitogen-activated protein kinase kinase 1 (Homo sapiens) (UniProt Q02750); assay: Inhibition of recombinant full length His-tagged human MEK1 expressed in baculovirus expression system at 1 uM by GST-tagged full length human inactive ERK2 coupled cascade assay relative to control
# [28] = target: Serine/threonine-protein kinase B-raf (Homo sapiens) (UniProt P15056); assay: Inhibition of recombinant full length GST-tagged human BRAF1 expressed in baculovirus expression system at 1 uM relative to control
# [29] = target: T1, Mitogen-activated protein kinase 1; assay: Binding affinity to non-phosphorylated biotinylated ERK2 (unknown origin) by SPR analysis
# [30] = Volume of distribution at steady state in rat; type: ADME; conditions: in vivo, read-out: Vdss
# [31] = Fraction unbound in rat plasma; type: ADME, cell-free
# [32] = target: Dual specificity mitogen-activated protein kinase kinase 1 (Homo sapiens) (UniProt Q02750); assay: Inhibition of recombinant full length His-tagged human MEK1 expressed in baculovirus expression system at 1 uM relative to control
# [33] = target: CDK2/Cyclin O (Homo sapiens) (UniProt P24941+P22674); assay: Inhibition of recombinant human full length N-terminal GST-tagged CDK2/Cyclin O expressed in baculovirus infected Sf9 cells at 1 uM relative to control
# [34] = test system: RAF proto-oncogene serine/threonine-protein kinase (Homo sapiens), P04049 [Y340D,Y341D]; assay: Inhibition of recombinant human GST-tagged c-RAF1 Y340D/Y341D mutant catalytic domain expressed in baculovirus expression system at 1 uM relative to control
# [35] = target: T3, CDK2/Cyclin A1 (Homo sapiens); assay: Binding affinity to recombinant human full length N-terminal GST-tagged CDK2/Cyclin A1 expressed in baculovirus infected Sf9 cells at 1 uM relative to control
# [36] = target: Dual specificity mitogen-activated protein kinase kinase 2 (Homo sapiens) (UniProt P36507); assay: Inhibition of recombinant full length his-tagged human MEK2 expressed in baculovirus expression system at 1 uM by GST-tagged full length human inactive ERK2 expressed in baculovirus expression system coupled cascade assay relative to control
# [37] = target: NUAK family SNF1-like kinase 1 (Homo sapiens) (UniProt O60285); assay: Inhibition of recombinant full length human His-tagged ARK5 expressed in baculovirus expression system at 1 uM relative to control
# [38] = target: Mitogen-activated protein kinase 15 (Homo sapiens) (UniProt Q8TD08); assay: Binding affinity to recombinant human N-terminal 4xFLAG-tagged/C-terminal His8-fused ERK7 N-terminal domain (M1 to R354 residues) expressed in Sf9 insect cells
# [39] = target: Cyclin-dependent kinase 2/cyclin E1 (Homo sapiens, UniProt P24941); assay: Inhibition of human full length C-terminal His6-tagged Cdk2/human full length N-terminal GST-tagged Cyclin E expressed in baculovirus infected Sf21 insect cells after 1 hr by electromobility shift assay
# [40] = target: Dual specificity mitogen-activated protein kinase kinase 2 (Homo sapiens) (UniProt P36507); assay: Inhibition of recombinant full length his-tagged human MEK2 expressed in baculovirus expression system at 1 uM relative to control
# [41] = target: Cyclin-dependent kinase 2/cyclin E1 (Homo sapiens) (UniProt P24864+P24941); assay: Inhibition of human full length C-terminal His6-tagged Cdk2/human full length N-terminal GST-tagged Cyclin E expressed in baculovirus infected Sf21 insect cells at 1 uM after 1 hr by electromobility shift assay relative to control
# [42] = target: Mitogen-activated protein kinase 3 (Homo sapiens) (UniProt P27361); assay: Inhibition of GST-tagged recombinant human full length ERK1 expressed in Escherichia coli at 1 uM relative to control
# [43] = Half life in po dosed dog; type: ADME, organism-based, Canis lupus familiaris; conditions: in vivo
# [44] = Oral bioavailability in dog; type: ADME, organism-based, Canis lupus familiaris; conditions: in vivo
# [45] = Oral bioavailability in rat; type: ADME, organism-based; conditions: in vivo
# [46] = target: T4, Cyclin-dependent kinase 5/CDK5 activator 1 (Homo sapiens, UniProt Q00535); assay: Inhibition of recombinant full length human His-tagged CDK5/p35 expressed in baculovirus expression system
# [47] = target: T4, Cyclin-dependent kinase 5/CDK5 activator 1; assay: Inhibition of recombinant full length human GST/His-tagged CDK5/p25 expressed in baculovirus expression system
# [48] = target: NUAK family SNF1-like kinase 1 (Homo sapiens, UniProt O60285); assay: Inhibition of recombinant full length human His-tagged ARK5 expressed in baculovirus expression system
# [49] = Half life in po dosed rat; type: ADME, organism-based; conditions: in vivo
# Mus musculus [50] = assay: Reduction in phosphorylated RSK level in athymic Nude-Foxn1nu mouse xenografted with human Calu6 cells expressing KRAS Q61K mutant at 25 mg/kg, po qd adminstered for 21 days and measured after 0.5 hrs post dose by Western blot analysis relative to control; type: functional; conditions: Calu-6, po
# Mus musculus [51] = assay: Reduction in phosphorylated RSK level in athymic Nude-Foxn1nu mouse xenografted with human Calu6 cells expressing KRAS Q61K mutant at 25 mg/kg, po qd adminstered for 21 days and measured after 6 hrs post dose by Western blot analysis relative to control; type: functional; conditions: Calu-6, po
# T1 sequence (P28482 whole entry): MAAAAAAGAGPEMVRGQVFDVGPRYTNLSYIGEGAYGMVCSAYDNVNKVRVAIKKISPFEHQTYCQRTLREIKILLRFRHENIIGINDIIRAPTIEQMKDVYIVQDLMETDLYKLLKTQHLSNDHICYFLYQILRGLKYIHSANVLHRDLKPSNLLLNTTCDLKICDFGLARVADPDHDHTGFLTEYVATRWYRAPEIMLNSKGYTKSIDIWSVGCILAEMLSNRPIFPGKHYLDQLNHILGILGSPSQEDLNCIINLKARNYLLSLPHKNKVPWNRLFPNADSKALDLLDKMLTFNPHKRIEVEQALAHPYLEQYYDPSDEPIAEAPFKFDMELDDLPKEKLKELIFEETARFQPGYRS
# Sequence of Dual specificity mitogen-activated protein kinase kinase 1 (Homo sapiens) (Q02750 whole entry): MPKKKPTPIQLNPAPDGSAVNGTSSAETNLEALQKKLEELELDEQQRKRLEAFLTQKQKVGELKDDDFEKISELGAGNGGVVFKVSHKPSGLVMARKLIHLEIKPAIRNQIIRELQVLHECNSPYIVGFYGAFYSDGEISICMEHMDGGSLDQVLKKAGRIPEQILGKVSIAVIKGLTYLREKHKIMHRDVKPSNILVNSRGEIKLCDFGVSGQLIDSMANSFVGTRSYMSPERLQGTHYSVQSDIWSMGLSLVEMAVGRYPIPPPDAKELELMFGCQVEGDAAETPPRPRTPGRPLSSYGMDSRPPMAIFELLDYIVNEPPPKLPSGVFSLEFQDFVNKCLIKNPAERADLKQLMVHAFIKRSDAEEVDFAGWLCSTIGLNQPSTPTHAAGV
# T4 sequence (Q00535 whole entry): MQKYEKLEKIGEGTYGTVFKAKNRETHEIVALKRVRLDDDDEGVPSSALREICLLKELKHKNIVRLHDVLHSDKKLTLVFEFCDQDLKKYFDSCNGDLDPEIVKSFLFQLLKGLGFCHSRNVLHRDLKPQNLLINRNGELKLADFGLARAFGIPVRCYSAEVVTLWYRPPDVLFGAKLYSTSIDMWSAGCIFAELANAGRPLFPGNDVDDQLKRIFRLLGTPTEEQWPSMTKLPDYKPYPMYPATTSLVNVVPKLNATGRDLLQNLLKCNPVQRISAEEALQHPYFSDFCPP
# T4 sequence (Q15078 whole entry, further chain): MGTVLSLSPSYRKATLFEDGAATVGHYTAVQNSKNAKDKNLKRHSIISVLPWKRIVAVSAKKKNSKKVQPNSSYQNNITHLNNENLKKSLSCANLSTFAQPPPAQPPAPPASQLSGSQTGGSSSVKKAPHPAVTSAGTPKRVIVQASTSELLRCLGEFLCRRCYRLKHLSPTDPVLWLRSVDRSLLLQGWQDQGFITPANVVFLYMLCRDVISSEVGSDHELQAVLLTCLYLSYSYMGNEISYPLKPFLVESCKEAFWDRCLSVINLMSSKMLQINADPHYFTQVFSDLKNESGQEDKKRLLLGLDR
# Sequence of Mitogen-activated protein kinase 15 (Homo sapiens) (Q8TD08 whole entry, the tested form may be a part): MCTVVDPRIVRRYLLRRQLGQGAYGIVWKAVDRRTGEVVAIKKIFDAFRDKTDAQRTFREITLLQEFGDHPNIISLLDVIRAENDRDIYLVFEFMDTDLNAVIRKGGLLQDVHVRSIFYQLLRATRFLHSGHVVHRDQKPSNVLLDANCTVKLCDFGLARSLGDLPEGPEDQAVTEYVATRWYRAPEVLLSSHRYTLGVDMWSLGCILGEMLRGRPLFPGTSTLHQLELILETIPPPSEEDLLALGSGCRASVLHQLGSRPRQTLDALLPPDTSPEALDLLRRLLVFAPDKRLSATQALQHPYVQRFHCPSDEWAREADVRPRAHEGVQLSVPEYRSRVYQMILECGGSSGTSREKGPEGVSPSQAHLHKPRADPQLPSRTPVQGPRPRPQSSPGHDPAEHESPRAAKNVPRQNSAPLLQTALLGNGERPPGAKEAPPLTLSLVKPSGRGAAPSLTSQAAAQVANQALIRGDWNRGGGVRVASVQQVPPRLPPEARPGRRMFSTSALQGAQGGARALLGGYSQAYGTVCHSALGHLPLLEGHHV
# Sequence of Dual specificity mitogen-activated protein kinase kinase 2 (Homo sapiens) (P36507 whole entry): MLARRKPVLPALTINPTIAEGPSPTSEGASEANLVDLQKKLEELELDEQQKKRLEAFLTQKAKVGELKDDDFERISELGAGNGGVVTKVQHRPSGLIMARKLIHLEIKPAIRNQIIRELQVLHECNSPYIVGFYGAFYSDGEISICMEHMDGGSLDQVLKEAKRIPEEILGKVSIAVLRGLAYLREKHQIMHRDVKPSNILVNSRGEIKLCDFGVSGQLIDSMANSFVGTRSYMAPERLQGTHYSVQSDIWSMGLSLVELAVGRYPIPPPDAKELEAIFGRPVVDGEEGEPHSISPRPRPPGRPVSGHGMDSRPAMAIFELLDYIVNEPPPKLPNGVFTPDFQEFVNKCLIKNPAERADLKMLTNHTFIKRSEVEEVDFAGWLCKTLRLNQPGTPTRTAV
# Sequence of Voltage-gated inwardly rectifying potassium channel KCNH2 (Q12809 whole entry): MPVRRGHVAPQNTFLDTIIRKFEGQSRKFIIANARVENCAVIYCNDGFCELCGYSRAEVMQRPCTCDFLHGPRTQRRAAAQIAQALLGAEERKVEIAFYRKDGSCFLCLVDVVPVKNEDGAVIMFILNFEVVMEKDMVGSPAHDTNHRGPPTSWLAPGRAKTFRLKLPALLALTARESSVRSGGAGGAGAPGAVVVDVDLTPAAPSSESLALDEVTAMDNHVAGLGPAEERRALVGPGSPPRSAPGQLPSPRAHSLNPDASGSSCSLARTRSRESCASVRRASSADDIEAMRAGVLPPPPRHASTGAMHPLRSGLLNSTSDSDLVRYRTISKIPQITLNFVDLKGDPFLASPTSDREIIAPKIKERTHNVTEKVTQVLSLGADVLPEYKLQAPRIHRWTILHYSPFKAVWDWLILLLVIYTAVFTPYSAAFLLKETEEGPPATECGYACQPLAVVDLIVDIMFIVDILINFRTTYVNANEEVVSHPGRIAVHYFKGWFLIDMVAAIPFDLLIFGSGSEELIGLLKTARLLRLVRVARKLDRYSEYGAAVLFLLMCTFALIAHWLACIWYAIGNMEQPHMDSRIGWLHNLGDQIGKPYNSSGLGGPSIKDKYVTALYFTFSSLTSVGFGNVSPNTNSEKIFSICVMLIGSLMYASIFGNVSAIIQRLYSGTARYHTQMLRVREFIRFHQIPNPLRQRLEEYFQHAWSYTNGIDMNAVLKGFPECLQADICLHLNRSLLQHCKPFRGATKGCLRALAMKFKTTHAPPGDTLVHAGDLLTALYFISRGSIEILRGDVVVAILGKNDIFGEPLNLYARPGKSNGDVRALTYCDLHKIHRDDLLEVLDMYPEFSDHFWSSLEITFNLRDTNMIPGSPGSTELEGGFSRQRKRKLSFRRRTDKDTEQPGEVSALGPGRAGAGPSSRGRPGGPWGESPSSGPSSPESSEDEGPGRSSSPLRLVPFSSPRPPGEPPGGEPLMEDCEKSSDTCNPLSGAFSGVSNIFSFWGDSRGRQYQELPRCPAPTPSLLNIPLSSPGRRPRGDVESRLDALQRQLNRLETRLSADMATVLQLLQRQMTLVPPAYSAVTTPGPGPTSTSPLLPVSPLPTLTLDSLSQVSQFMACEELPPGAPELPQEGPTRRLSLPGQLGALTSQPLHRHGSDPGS
# Sequence of RAF proto-oncogene serine/threonine-protein kinase (Homo sapiens), P04049 [Y340D,Y341D] (P04049 whole entry Y340D/Y341D, the tested form may be a part): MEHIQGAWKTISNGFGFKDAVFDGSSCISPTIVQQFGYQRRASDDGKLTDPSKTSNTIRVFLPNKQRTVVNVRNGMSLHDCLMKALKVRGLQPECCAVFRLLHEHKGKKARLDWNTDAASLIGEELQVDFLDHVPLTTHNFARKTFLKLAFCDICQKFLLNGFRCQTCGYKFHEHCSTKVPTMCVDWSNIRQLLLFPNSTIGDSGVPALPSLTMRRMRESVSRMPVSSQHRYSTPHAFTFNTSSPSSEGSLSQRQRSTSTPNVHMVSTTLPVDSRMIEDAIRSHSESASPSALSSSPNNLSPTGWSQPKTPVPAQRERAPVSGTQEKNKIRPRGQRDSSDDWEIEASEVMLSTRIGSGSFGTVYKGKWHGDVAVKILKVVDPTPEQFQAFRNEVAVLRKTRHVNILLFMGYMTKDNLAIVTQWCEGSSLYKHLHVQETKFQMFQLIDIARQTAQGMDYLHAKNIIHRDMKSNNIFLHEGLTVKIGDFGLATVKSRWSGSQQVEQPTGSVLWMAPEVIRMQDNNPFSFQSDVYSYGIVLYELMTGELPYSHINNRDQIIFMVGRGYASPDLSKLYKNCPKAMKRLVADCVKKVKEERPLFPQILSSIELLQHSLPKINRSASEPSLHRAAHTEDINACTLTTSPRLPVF
# Sequence of Mitogen-activated protein kinase kinase kinase 8 (Homo sapiens) (P41279 whole entry, the tested form may be a part): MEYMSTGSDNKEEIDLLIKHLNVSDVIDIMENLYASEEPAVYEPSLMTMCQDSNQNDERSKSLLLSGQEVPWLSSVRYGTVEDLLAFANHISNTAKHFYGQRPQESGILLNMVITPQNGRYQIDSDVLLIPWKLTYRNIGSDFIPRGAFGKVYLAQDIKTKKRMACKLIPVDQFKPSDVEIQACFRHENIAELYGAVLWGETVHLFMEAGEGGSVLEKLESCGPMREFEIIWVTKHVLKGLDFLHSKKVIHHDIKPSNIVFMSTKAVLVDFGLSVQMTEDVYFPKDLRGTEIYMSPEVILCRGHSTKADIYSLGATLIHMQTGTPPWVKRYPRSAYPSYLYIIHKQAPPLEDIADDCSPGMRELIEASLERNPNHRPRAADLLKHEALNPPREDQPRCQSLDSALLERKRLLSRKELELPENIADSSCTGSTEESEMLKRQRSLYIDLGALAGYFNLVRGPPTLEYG
# Sequence of Cyclin-dependent kinase 5 (Homo sapiens) (Q00535 whole entry, looked up): as the sequence (Q00535 whole entry) above
compound,measurement,setting,value
Cc1cccc(CN2C(=O)c3cc(-c4nc(Nc5ccnn5C)ncc4C)cn3C[C@H]2C)n1,T1/2,[1],37 min
same,Ka,[2],1.3 ×10⁻⁶ /M/s
same,Kdiss,[3],1 ×10⁻³ /s
same,Ka,[4],1.9 ×10⁻⁶ /M/s
same,Kdiss,[5],3.2 ×10⁻⁴ /s
same,T1/2,[6],11.9 min
CC(C)Nc1cc(-c2c[nH]c(C(=O)N[C@H](CO)c3cccc(Cl)c3)c2)c(Cl)cn1,T1/2,[1],35 min
same,Ka,[2],7.5 ×10⁻⁵ /M/s
same,Kdiss,[3],7.4 ×10⁻³ /s
same,Ka,[4],1.3 ×10⁻⁶ /M/s
same,Kdiss,[5],4.1 ×10⁻⁴ /s
same,T1/2,[6],2 min
Cc1cnc(Nc2ccnn2C)nc1-c1cn2c(n1)C(=O)N(Cc1ccc(F)c(F)c1)CC2,IC50,[7],0.83 nM
same,IC50,[8],23 µM
same,IC50,[9],2.6 nM
same,IC50,[10],9.1 nM
same,IC50,[11],0.031 µM
COC[C@H]1Cn2cc(-c3nc(Nc4ccnn4C)ncc3C)nc2C(=O)N1Cc1ccc(F)c(F)c1 [TIZATERKIB],Kd,[12],0.0501 nM
same,GI50,A-375,60 nM
same,inhibition,[13],103%
same,inhibition,[14],81%
same,IC50,[7],< 0.3 nM
same,fraction unbound,[15],0.12
same,GI50,Calu-6 [16],200 nM
same,inhibition,[17],87%
same,inhibition,[18],99%
same,fraction unbound,[19],0.44
same,T1/2,[1],277 min
same,Activity,A549,28%
same,inhibition,[20],101%
same,Ka,[2],6.5 ×10⁻⁵ /M/s
same,inhibition in vivo at 15 mg/kg,Calu-6 [21],93%
same,fraction unbound,[22],0.06 to 0.27
same,inhibition,[23],inactive
same,Activity,Calu-6 [24],49%
same,Kdiss,[3],6 ×10⁻⁵ /s
same,Vd,[25],1.2 L/kg
same,Activity,[26],1.9 µM
same,inhibition,[27],104%
same,inhibition,[28],5.8%
same,Kd,[29],0.1 nM
same,Vd,[30],1.5 L/kg
same,fraction unbound,[31],0.21
same,inhibition,[32],-2.5%
same,inhibition,[33],95%
same,inhibition,[34],-3.5%
same,Activity,[35],91%
same,inhibition,[36],101%
same,inhibition,[37],80%
same,Activity,[38],0.03 µM
same,IC50,[39],1000 nM
same,Ka,[4],8.9 ×10⁻⁵ /M/s
same,inhibition,[40],-2.2%
same,inhibition,[41],89%
same,inhibition,[42],105%
same,IC50,[8],11 µM
same,half-life,[43],300 min
same,IC50,[9],0.66 nM
same,bioavailability,[44],100%
same,bioavailability,[45],30%
same,IC50,[46],300 nM
same,IC50,[47],300 nM
same,IC50,[48],400 nM
same,Kdiss,[5],4.5 ×10⁻⁵ /s
same,half-life,[49],138 min
same,IC50,[10],1.7 nM
same,inhibition in vivo at 25 mg/kg,Mus musculus [50],100%
same,T1/2,[6],194 min
same,inhibition in vivo at 25 mg/kg,Mus musculus [51],100%
same,IC50,[11],0.0057 µM
Cc1cnc(Nc2ccnn2C)nc1-c1cc2n(c1)CCN(Cc1ccc(F)c(F)c1)C2=O,IC50,[7],< 0.3 nM
same,IC50,[9],0.35 nM
same,IC50,[11],0.02 µM
Cc1cnc(Nc2ccnn2C)nc1-c1cn2c(n1)C(=O)N(Cc1cccc(Cl)c1)CC2,IC50,[7],< 0.3 nM
same,IC50,[9],0.34 nM
same,IC50,[10],4.7 nM
same,IC50,[11],0.012 µM
